Reference: PMC11111691, “Cystine-knot peptide inhibitors of HTRA1 bind to a cryptic pocket within the active site region” (Nature Communications, 2024)
Positions of bridges follow the written chain, without caps; N, C: chain ends. Residues, ends and D or L forms follow the SMILES beside them.

Tests used:
HTRA1^PD(SA) = molecular target: T1, HTRA1^PD(SA) (Homo sapiens, UniProt Q92743, S328A); assay: SPR binding kinetics to HTRA1^PD(SA); settings: mean ± S.D. of three or more independent experiments
T1 construct: The protease domains of human HTRA1 (HTRA1^PD; D161-K379); made in house; host or cells: E. coli
Protocol: Surface plasmon resonance (SPR) experiments were performed using a Biacore S200 instrument at 25 °C. His-tagged HTRA proteins were captured on a CM5 sensor chip using the His-capture kit (GE Healthcare). Protein concentrations used for immobilization were as follows; HTRA1^PD(SA), HTRA1^PD and HTRA1^PD-ABP 2 µg/ml with 60-s injections at 10 µl/min, HTRA2^PD/PDZ, HTRA3^PD/PDZ, and HTRA4^PD/PDZ 4 µg/ml with 60-s injections at 10 µl/min. Approximate immobilization levels of HTRA proteins were as follows; HTRA1^PD(SA) 700 RU, HTRA1^PD 900 RU, HTRA1^PD-ABP 900 RU, HTRA2^PD/PDZ 500 RU, HTRA3^PD/PDZ 500 RU, HTRA4^PD/PDZ 500 RU. All CKPs were prepared in HBS-EP buffer (0.01 M HEPES pH 7.4, 0.15 M NaCl, 3 mM EDTA, 0.005% v/v Surfactant P20). All CKP concentrations were injected for 120 s at a flow rate of 30 μl/min. A reference channel was subtracted from the HTRA-captured channel.
Binding kinetics of peptides to HTRA1^PD(SA) were determined by flowing six serial three-fold dilutions of peptide over the HTRA1^PD(SA) immobilized surface using a single cycle kinetics model. CKP maximum concentrations were as follows: 1A7, 1A8, 1C10, 2D5, and 3A7, 300 nM; 1G10-ENI and 1D3-ENI, 100 nM; 3B3, 3000 nM; and CPI, 10,000 nM. Data were analyzed using GE BIA evaluation software using a 1:1 Langmuir binding model. The KD values, calculated from the determined kon and koff values, were the mean ± S.D. of 3–4 independent experiments.

HTRA4^PD/PDZ, HTRA4^FL [1] = molecular target: T2, HTRA4^PD/PDZ, HTRA4^FL (Homo sapiens, UniProt P83105); assay: Fluorescence-quenched casein-BODIPY assay, HTRA4; format: biochemical; settings: 300 nM HTRA4^PD/PDZ, 2 µM CKP (0.5 mM 7mer-ABP)
T2 construct: purchased Abcam (FL form); the PD/PDZ form was made in house in E. coli ab134444
T2 sequence (P83105 153-476): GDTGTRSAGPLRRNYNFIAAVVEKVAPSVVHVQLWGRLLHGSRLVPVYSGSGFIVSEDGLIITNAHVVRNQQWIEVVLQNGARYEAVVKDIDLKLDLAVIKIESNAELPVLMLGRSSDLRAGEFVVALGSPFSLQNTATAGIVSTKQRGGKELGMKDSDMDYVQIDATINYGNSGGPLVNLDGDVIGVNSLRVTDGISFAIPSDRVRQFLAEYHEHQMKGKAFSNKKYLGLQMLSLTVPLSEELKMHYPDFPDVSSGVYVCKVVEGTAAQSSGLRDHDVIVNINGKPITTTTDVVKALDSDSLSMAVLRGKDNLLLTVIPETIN
Protocol: (§1) The fluorescence-quenched casein-BODIPY® assay (EnzCheck®, Thermo Fisher Scientific) was carried out in TNC buffer (50 mM Tris pH 8.0, 200 mM NaCl, 0.25% CHAPS) at 37 °C in 96-well black optical bottom plates (Nalge Nunc Int., Rochester, NY). Enzymes were incubated with CKPs or DMSO control for 15 min prior to addition of casein substrate. The reactant concentrations were: 30 nM HTRA1^FL, 30 nM HTRA1^PD/PDZ, 30 nM HTRA1^PD, 30 nM HTRA2^PD/PDZ, 30 nM HTRA3^FL, 100 nM HTRA3^PD/PDZ, 30 nM HTRA4^FL, 300 nM HTRA4^PD/PDZ, 2 µM CKP, 5 µg/ml casein substrate and 0.25% DMSO. For selectivity assays, 0.5 mM 7mer-ABP was used as positive control. The kinetics of substrate cleavage were measured at 37 °C on a SpectraMax M5 microplate reader (Molecular Devices) with excitation of 485 nm and emission of 530 nm for 30 min (HTRA1 and HTRA2) or 5 h (HTRA3 and HTRA4). The determined initial rates of cleavage were expressed as percent of control (DMSO control) after subtracting the baseline rates (without enzyme).

HTRA4^PD/PDZ, HTRA4^FL [2] = molecular target: T3, HTRA4^PD/PDZ, HTRA4^FL (Homo sapiens, UniProt P83105); assay: Fluorescence-quenched casein-BODIPY assay, HTRA4; format: biochemical; settings: 30 nM HTRA4^FL, 2 µM CKP (0.5 mM 7mer-ABP)
T3 construct: purchased Abcam (FL form); the PD/PDZ form was made in house in E. coli ab134444
T3 sequence (P83105 32-476): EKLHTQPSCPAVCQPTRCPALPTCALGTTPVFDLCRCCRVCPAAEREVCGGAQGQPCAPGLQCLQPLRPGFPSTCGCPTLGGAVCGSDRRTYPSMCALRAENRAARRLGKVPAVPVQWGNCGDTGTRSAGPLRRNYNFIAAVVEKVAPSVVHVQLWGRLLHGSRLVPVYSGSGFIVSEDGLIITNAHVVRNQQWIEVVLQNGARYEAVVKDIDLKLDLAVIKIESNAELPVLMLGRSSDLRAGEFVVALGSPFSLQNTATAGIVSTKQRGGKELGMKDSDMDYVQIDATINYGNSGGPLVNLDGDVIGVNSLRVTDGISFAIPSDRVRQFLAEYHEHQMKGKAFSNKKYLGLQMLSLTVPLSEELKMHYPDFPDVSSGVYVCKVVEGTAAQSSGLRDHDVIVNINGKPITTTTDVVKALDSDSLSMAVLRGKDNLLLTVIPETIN
Protocol: as §1

HTRA3^PD/PDZ, HTRA3^FL = molecular target: T4, HTRA3^PD/PDZ, HTRA3^FL (Homo sapiens, UniProt P83110); assay: Fluorescence-quenched casein-BODIPY assay, HTRA3; format: biochemical; settings: 2 µM CKP (0.5 mM 7mer-ABP)
T4 construct: purchased Abcam (FL form); the PD/PDZ form was made in house in E. coli ab134450
Protocol: as §1

HTRA2^PD/PDZ = molecular target: T5, HTRA2^PD/PDZ (Homo sapiens, UniProt O43464); assay: Fluorescence-quenched casein-BODIPY assay, HTRA2; format: biochemical; settings: 30 nM HTRA2^PD/PDZ, 2 µM CKP (0.5 mM 7mer-ABP)
T5 construct: Human HTRA2^PD/PDZ (A134-E458) was from R & D Systems; purchased R & D Systems 1458-HT-100
T5 sequence (O43464 134-458): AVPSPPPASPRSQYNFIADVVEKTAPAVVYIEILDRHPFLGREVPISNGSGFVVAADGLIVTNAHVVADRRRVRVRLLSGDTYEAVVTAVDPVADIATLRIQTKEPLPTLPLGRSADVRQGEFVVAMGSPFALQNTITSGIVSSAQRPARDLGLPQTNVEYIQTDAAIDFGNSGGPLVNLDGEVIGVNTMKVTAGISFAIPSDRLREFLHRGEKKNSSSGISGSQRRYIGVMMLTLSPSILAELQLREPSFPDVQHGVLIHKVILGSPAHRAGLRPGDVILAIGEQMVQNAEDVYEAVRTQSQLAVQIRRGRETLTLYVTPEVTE
Protocol: as §1

[3] = SPR Biacore S200, 25 °C, single cycle kinetics, 1:1 Langmuir model

T1 sequence (Q92743 161-379 S328A): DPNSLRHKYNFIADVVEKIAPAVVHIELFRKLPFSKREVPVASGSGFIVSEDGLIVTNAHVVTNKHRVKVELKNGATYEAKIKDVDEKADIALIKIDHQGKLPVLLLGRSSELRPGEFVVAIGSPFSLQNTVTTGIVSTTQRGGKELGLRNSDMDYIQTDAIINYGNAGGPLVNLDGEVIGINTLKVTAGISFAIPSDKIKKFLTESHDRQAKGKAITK

Molecule | koff (HTRA1^PD(SA); [3]) | kon (HTRA1^PD(SA); [3]) | Kd (HTRA1^PD(SA); SPR, calculated from kon and koff, CPI up to 10 µM) | Inhibition of HTRA4^PD/PDZ, casein-BODIPY cleavage (% of control) (HTRA4^PD/PDZ, HTRA4^FL [1]) | Inhibition of HTRA4^FL, casein-BODIPY cleavage (% of control) (HTRA4^PD/PDZ, HTRA4^FL [2]) | Inhibition of HTRA3^FL, casein-BODIPY cleavage (% of control) (HTRA3^PD/PDZ, HTRA3^FL; 30 nM HTRA3^FL) | Inhibition of HTRA3^PD/PDZ, casein-BODIPY cleavage (% of control) (HTRA3^PD/PDZ, HTRA3^FL; 100 nM HTRA3^PD/PDZ) | Inhibition of HTRA2^PD/PDZ, casein-BODIPY cleavage (% of control) (HTRA2^PD/PDZ)
CC[C@H](C)[C@H](NC(=O)[C@@H]1CCCN1C(=O)[C@H](CC(=O)O)NC(=O)[C@H](C)NC(=O)[C@@H](N)Cc1c[nH]cn1)C(=O)N[C@H]1CSSC[C@@H]2NC(=O)[C@H](Cc3ccccc3)NC(=O)[C@H](Cc3c[nH]c4ccccc34)NC(=O)[C@H](C)NC(=O)CNC(=O)[C@H](CO)NC(=O)[C@@H]3CSSC[C@@H](C(=O)NCC(=O)N4CCC[C@H]4C(=O)N[C@@H](Cc4ccc(O)cc4)C(=O)N[C@H](C(=O)NCC(N)=O)C(C)C)NC(=O)[C@H](CO)NC(=O)[C@H](Cc4c[nH]c5ccccc45)NC(=O)[C@H]([C@@H](C)O)NC(=O)[C@H](C)NC(=O)[C@H](Cc4ccc(O)cc4)NC(=O)[C@H](Cc4ccc(O)cc4)NC(=O)[C@H](CSSC[C@H](NC(=O)[C@@H]4CCCN4C(=O)[C@H](CCCCN)NC(=O)[C@H](CC(N)=O)NC1=O)C(=O)N[C@@H](CCCCN)C(=O)N[C@@H]([C@@H](C)O)C(=O)N[C@@H](Cc1c[nH]cn1)C(=O)N[C@@H](CC(=O)O)C(=O)N[C@@H](CC(=O)O)C(=O)N3)NC(=O)[C@H](C)NC(=O)[C@H](CCC(N)=O)NC2=O [3B3] (H-HADPICNKPCKTHDDCSGAWFCQACYYATWSCGPYVG-NH2; disulfide 6-22, 10-25, 16-32) | 3.8 ± 0.5 s-1 x10-4 | 1.1 ± 0.2 M-1 s-1 x104 | 34 nM |  |  |  |  | 
DPMFKLV-phosphonate [7mer-ABP] |  |  |  | significantly inhibited | significantly inhibited | significantly inhibited | significantly inhibited | significantly inhibited
